Target: Polθ theta (1-899) (hPolQ) (Homo sapiens (Human), UniProt O75417)
Assay: Biological Assay 1: Polθ ATPase activity, NADH oxidation-coupled enzymatic assay (10 nM enzyme, 30 min)
Format: biochemical
Conditions: Polθ (1-899) 10 nM, 100 μM ATP, 300 nM dT50 ssDNA; Examples 1 to 268; read-out: ATPase NADH coupling:Standard Screening:hPolQ IC50
Procedure: The ability of the compounds of Formula (I), (II), (III), (IV), or Table 1 (Examples 1 to Example 268) to inhibit ATPase activity of Polθ theta (1-899) was determined using the assay described below.
Polθ Theta ATPase activity was determined by measuring the rate of ATP turn over in a NADH oxidation-coupled enzymatic assay. 10-point dilution series of compounds were used in a 384 well format for the inhibition assays. Polθ theta (1-899) (10 nM) in assay buffer (20 mM Tris HCl (pH 7.80), 80 mM KCl, 10 mM MgCl2, 1 mM DTT, 0.01% BSA, 0.01% Tween, 5% glycerol) was transferred to the test wells (20 μL), except the low control wells (20 μL of assay buffer was added to the low control wells). The plate was then incubated at room temperature for 15 min. An equal volume (20 μL) of 100 μM ATP, 300 nM dT50 (single-stranded DNA (ssDNA) containing 50 thymine bases), 300 μM NADH, 6 mM PEP, 10 U/mL lactate dehydrogenase and U/mL pyruvate kinase in assay buffer was added to all the test wells. The plate was then centrifuged at 1000 rpm for 1 min. The reaction was monitored for 30 min by measuring absorbance (λ=340 nm) in a Tecan Spark multimode plate reader every minute. The high control (DMSO with enzyme) with low absorbance intensity represents no inhibition of ATPase reaction while the low control (DMSO with buffer) with high absorbance intensity represents full inhibition of ATPase activity. Slope of the reaction progress curves were used to calculate the rate of ATP hydrolysis. The rates were used to determine the percent inhibition using a four-parameter inhibition model to generate IC50, Hill slope and max inhibition.

Chain of Polθ theta (1-899) (hPolQ) (O75417 1-899): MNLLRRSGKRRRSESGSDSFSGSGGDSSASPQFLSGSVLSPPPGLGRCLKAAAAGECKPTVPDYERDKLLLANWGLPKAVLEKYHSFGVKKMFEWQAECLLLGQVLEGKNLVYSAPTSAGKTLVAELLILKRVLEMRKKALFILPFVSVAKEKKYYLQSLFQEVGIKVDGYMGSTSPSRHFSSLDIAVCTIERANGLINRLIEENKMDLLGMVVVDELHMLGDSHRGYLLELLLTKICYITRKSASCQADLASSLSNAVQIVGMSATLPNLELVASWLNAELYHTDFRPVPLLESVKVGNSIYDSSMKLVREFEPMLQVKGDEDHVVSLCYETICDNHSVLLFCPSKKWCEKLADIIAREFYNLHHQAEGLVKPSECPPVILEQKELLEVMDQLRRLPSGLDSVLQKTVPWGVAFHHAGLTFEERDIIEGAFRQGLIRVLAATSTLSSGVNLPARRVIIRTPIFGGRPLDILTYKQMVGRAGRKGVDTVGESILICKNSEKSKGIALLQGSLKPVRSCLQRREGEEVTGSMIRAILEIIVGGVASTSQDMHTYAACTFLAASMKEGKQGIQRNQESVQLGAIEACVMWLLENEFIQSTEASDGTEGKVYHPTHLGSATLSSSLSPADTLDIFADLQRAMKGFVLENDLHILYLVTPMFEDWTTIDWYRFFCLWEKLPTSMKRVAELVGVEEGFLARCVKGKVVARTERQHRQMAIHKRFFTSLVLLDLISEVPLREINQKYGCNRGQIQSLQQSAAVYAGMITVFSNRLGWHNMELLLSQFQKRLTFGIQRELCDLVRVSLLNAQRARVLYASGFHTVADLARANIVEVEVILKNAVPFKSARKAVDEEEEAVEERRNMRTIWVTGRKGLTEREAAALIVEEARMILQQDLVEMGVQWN

Compound | IC50 [nM]
Cc1cc(-c2cc(CO)ccc2F)c(C(=O)Nc2nnc(OCc3ccc(Cl)cn3)s2)cn1 [Example 23, N-(5-((5-chloropyridin-2-yl)methoxy)-1,3,4-thiadiazol-2-yl)-4-(2-fluoro-5-(hydroxymethyl)phenyl)-6-methylnicotinamide] | ≤ 200
COc1cccc(F)c1-c1cc(C)ncc1C(=O)Nc1nnc(OCc2ccc(S(C)(=O)=O)cn2)s1 [Example 24, 4-(2-fluoro-6-methoxyphenyl)-6-methyl-N-(5-((5-(methylsulfonyl)pyridin-2-yl)methoxy)-1,3,4-thiadiazol-2-yl)nicotinamide] | ≤ 200
Cc1cc(-c2c(F)cccc2OC(F)F)c(C(=O)Nc2nnc(OCc3ccc(CO)cn3)s2)cn1 [Example 25, 4-(2-(difluoromethoxy)-6-fluorophenyl)-N-(5-((5-(hydroxymethyl)pyridin-2-yl)methoxy)-1,3,4-thiadiazol-2-yl)-6-methylnicotinamide] | ≤ 200
COCc1cccc(COc2nnc(NC(=O)c3cnc(C)cc3-c3ccccc3OC)s2)n1 [Example 26, N-(5-((6-(methoxymethyl)pyridin-2-yl)methoxy)-1,3,4-thiadiazol-2-yl)-4-(2-methoxyphenyl)-6-methylnicotinamide] | 200 to 500
COc1ccccc1-c1cc(C)ncc1C(=O)Nc1nnc(OC[C@H](O)c2ccc(Cl)cn2)s1 [Example 27, (R)—N-(5-(2-(5-chloropyridin-2-yl)-2-hydroxyethoxy)-1,3,4-thiadiazol-2-yl)-4-(2-methoxyphenyl)-6-methylnicotinamide] | 200 to 500
COc1ccccc1-c1cc(C)ncc1C(=O)Nc1nnc(OC[C@@H](O)c2ccc(Cl)cn2)s1 [Example 28, (S)—N-(5-(2-(5-chloropyridin-2-yl)-2-hydroxyethoxy)-1,3,4-thiadiazol-2-yl)-4-(2-methoxyphenyl)-6-methylnicotinamide] | 500 to 1000
COc1ccccc1-c1cc(C)ncc1C(=O)Nc1nnc(O[C@@H](CO)c2ccc(Cl)cn2)s1 [Example 29, (R)—N-(5-(1-(5-chloropyridin-2-yl)-2-hydroxyethoxy)-1,3,4-thiadiazol-2-yl)-4-(2-methoxyphenyl)-6-methylnicotinamide] | 1000 to 10000
COc1ccccc1-c1cc(C)ncc1C(=O)Nc1nnc(O[C@H](CO)c2ccc(Cl)cn2)s1 [Example 30, (S)—N-(5-(1-(5-chloropyridin-2-yl)-2-hydroxyethoxy)-1,3,4-thiadiazol-2-yl)-4-(2-methoxyphenyl)-6-methylnicotinamide] | 500 to 1000
COc1cc(CO)ccc1-c1cc(C)ncc1C(=O)Nc1nnc(OCc2ccc(Cl)cn2)s1 [Example 31, N-(5-((5-chloropyridin-2-yl)methoxy)-1,3,4-thiadiazol-2-yl)-4-(4-(hydroxymethyl)-2-methoxyphenyl)-6-methylnicotinamide] | 200 to 500
COc1ccc(C#N)cc1-c1cc(C)ncc1C(=O)Nc1nnc(OCc2ccc(CO)cn2)s1 [Example 32, 4-(5-cyano-2-methoxyphenyl)-N-(5-((5-(hydroxymethyl)pyridin-2-yl)methoxy)-1,3,4-thiadiazol-2-yl)-6-methylpyridine-3-carboxamide] | ≤ 200
COc1cccc(F)c1-c1cc(C)ncc1C(=O)Nc1nnc(OCc2ccc(C(C)(C)O)cn2)s1 [Example 33, 4-(2-fluoro-6-methoxyphenyl)-N-(5-((5-(2-hydroxypropan-2-yl)pyridin-2-yl)methoxy)-1,3,4-thiadiazol-2-yl)-6-methylnicotinamide] | ≤ 200
COCc1ccc(COc2nnc(NC(=O)c3cnc(C)cc3-c3c(F)cccc3OC)s2)nc1 [Example 34, 4-(2-fluoro-6-methoxyphenyl)-N-(5-((5-(methoxymethyl)pyridin-2-yl)methoxy)-1,3,4-thiadiazol-2-yl)-6-methylnicotinamide] | ≤ 200
COc1cccc(F)c1-c1cc(C)ncc1C(=O)Nc1nnc(OCc2ccc3c(n2)OCCO3)s1 [Example 35, N-(5-(2H,3H-(1,4)dioxino(2,3-b)pyridin-6-ylmethoxy)-1,3,4-thiadiazol-2-yl)-4-(2-fluoro-6-methoxyphenyl)-6-methylpyridine-3-carboxamide] | ≤ 200
COc1cnc(C)cc1-c1cc(C)ncc1C(=O)Nc1nnc(OCc2ccc(Cl)cn2)s1 [Example 36, N-(5-((5-chloropyridin-2-yl)methoxy)-1,3,4-thiadiazol-2-yl)-5′-methoxy-2′,6-dimethyl-(4,4′-bipyridine)-3-carboxamide] | ≤ 200
COc1cccc(F)c1-c1cncnc1C(=O)Nc1nnc(OCc2ccc(CO)cn2)s1 [Example 37, 5-(2-fluoro-6-methoxyphenyl)-N-(5-((5-(hydroxymethyl)pyridin-2-yl)methoxy)-1,3,4-thiadiazol-2-yl)pyrimidine-4-carboxamide] | ≤ 200
COc1cccc(F)c1-c1cc(C)ncc1C(=O)Nc1nnc(OCc2ccc(OC3COC3)cn2)s1 [Example 38, 4-(2-fluoro-6-methoxyphenyl)-6-methyl-N-(5-((5-(oxetan-3-yloxy)pyridin-2-yl)methoxy)-1,3,4-thiadiazol-2-yl)pyridine-3-carboxamide] | ≤ 200
COc1ccc(Cl)cc1-c1cc(C)ncc1C(=O)Nc1nnc(OCc2ccc(CO)cn2)s1 [Example 39, 4-(5-chloro-2-methoxyphenyl)-N-(5-((5-(hydroxymethyl)pyridin-2-yl)methoxy)-1,3,4-thiadiazol-2-yl)-6-methylpyridine-3-carboxamide] | ≤ 200
COc1cccc(F)c1-c1cc(C)ncc1C(=O)Nc1nnc(OCc2ccc([C@H](C)O)cn2)s1 [Example 40, 4-(2-fluoro-6-methoxyphenyl)-N-(5-((5-((S)-1-hydroxyethyl)pyridin-2-yl)methoxy)-1,3,4-thiadiazol-2-yl)-6-methylnicotinamide] | ≤ 200
COc1cccc(F)c1-c1cc(C)ncc1C(=O)Nc1nnc(OCc2ccc([C@@H](C)O)cn2)s1 [Example 41, 4-(2-fluoro-6-methoxyphenyl)-N-(5-((5-((R)-1-hydroxyethyl)pyridin-2-yl)methoxy)-1,3,4-thiadiazol-2-yl)-6-methylnicotinamide] | ≤ 200

Further lines, results first:

IC50 [nM] | Compound
200 to 500 | COc1ccccc1-c1cc(C)ncc1C(=O)Nc1nnc(OCc2cc(CO)ccn2)s1 [Example 42, N-(5-((4-(hydroxymethyl)pyridin-2-yl)methoxy)-1,3,4-thiadiazol-2-yl)-4-(2-methoxyphenyl)-6-methylpyridine-3-carboxamide]
≤ 200 | COc1ccc(COc2nnc(NC(=O)c3cnc(C)cc3-c3c(F)cccc3OC)s2)nc1OC [Example 43, N-(5-((5,6-dimethoxypyridin-2-yl)methoxy)-1,3,4-thiadiazol-2-yl)-4-(2-fluoro-6-methoxyphenyl)-6-methylnicotinamide]
≤ 200 | COc1ccc(C)cc1-c1cc(C)ncc1C(=O)Nc1nnc(OCc2ccc(Cl)cn2)s1 [Example 44, N-(5-((5-chloropyridin-2-yl)methoxy)-1,3,4-thiadiazol-2-yl)-4-(2-methoxy-5-methylphenyl)-6-methylpyridine-3-carboxamide]
≤ 200 | COc1ccc(COc2nnc(NC(=O)c3cnc(C)cc3-c3cc(Cl)ncc3OC)s2)nc1 [Example 45, 2′-chloro-5′-methoxy-N-(5-((5-methoxypyridin-2-yl)methoxy)-1,3,4-thiadiazol-2-yl)-6-methyl-(4,4′-bipyridine)-3-carboxamide]
≤ 200 | COc1ccc(COc2nnc(NC(=O)c3cnc(C)cc3-c3c(F)cccc3OC(F)F)s2)nc1 [Example 46, 4-(2-(difluoromethoxy)-6-fluorophenyl)-N-(5-((5-methoxypyridin-2-yl)methoxy)-1,3,4-thiadiazol-2-yl)-6-methylnicotinamide]
≤ 200 | Cc1cc(-c2c(F)cccc2OC(F)F)c(C(=O)Nc2nnc(OCc3ccc4c(n3)OCCO4)s2)cn1 [Example 47, 4-(2-(difluoromethoxy)-6-fluorophenyl)-N-(5-((2,3-dihydro-(1,4)dioxino(2,3-b)pyridin-6-yl)methoxy)-1,3,4-thiadiazol-2-yl)-6-methylnicotinamide]
≤ 200 | COc1cccc(F)c1-c1cc(C)ncc1C(=O)Nc1nnc(OCc2ccc(C3(O)CC3)cn2)s1 [Example 48, 4-(2-fluoro-6-methoxyphenyl)-N-(5-((5-(1-hydroxycyclopropyl)pyridin-2-yl)methoxy)-1,3,4-thiadiazol-2-yl)-6-methylnicotinamide]
≤ 200 | COc1cccc(F)c1-c1cc(C)ncc1C(=O)Nc1nnc(OCc2ccc(OC(F)F)cn2)s1 [Example 49, N-(5-((5-(difluoromethoxy)pyridin-2-yl)methoxy)-1,3,4-thiadiazol-2-yl)-4-(2-fluoro-6-methoxyphenyl)-6-methylnicotinamide]
≤ 200 | Cc1cc(-c2c(F)cccc2OC(F)F)c(C(=O)Nc2nnc(OCc3ccc(C(C)(C)O)cn3)s2)cn1 [Example 50, 4-(2-(difluoromethoxy)-6-fluorophenyl)-N-(5-((5-(2-hydroxypropan-2-yl)pyridin-2-yl)methoxy)-1,3,4-thiadiazol-2-yl)-6-methylnicotinamide]
